This note sets out measurements from ChEMBL document CHEMBL1201862, “PubChem BioAssay data set” (2004).

The subject of test [1] is HEK293. As to the kind of experiment: cells. Conditions: Homo sapiens.
For test [2], the system named is HEK293. Nature of the test: cells. Conditions: Homo sapiens. This is another data set of the same source.
Test [3] is described as follows: Luminescence Cell-Based Dose Retest to Confirm Inhibitors of Cancer Stem Cells. [Related pubchem assays (depositor defined):AID2717, AID2721]. The format is functional. Conditions: Homo sapiens.
A short description of test [4]: cytotoxicity in HMLE control line with eGFP shRNA, dose response, counter-screen for HMLE_sh_ECad selective toxicity project, cell-based, HMLE_sh_eGFP, luminescence (AID 463074).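 Also: HMLE human mammary epithelial cells expressing control shRNA against eGFP.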 The format is functional, Homo sapiens.
In test [5] the target is T1, Alkaline phosphatase, tissue-nonspecific isozyme (Homo sapiens, UniProt P05186).
T1 sequence (P05186 whole entry): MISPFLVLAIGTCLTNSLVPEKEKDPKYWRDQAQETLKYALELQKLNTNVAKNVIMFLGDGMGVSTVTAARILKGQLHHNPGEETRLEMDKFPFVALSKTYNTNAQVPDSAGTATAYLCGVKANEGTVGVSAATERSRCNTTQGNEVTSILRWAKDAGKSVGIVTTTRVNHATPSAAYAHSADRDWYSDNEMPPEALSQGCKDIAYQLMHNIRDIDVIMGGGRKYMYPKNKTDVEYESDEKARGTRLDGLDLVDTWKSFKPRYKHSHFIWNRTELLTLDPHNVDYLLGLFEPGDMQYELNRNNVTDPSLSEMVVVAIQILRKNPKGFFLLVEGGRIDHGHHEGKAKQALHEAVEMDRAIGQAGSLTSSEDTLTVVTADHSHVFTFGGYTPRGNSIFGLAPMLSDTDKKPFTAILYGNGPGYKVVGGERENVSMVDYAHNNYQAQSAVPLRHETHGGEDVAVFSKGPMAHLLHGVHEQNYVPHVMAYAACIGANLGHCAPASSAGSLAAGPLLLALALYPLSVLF
Nature of the test: TNAP enzyme inhibition by screening hits, dose response, selectivity assay for mouse IAP inhibitor project, biochemical, human TNAP, uHTS hits (AID 488906). The format is functional.

In test [6] the target is Intestinal-type alkaline phosphatase (Homo sapiens, UniProt P09923). Nature of the test: inhibition of human intestinal alkaline phosphatase – biochemical, dose response (AID 488876). The format is functional.
Sequence of Intestinal-type alkaline phosphatase (Homo sapiens, UniProt P09923) (P09923 whole entry): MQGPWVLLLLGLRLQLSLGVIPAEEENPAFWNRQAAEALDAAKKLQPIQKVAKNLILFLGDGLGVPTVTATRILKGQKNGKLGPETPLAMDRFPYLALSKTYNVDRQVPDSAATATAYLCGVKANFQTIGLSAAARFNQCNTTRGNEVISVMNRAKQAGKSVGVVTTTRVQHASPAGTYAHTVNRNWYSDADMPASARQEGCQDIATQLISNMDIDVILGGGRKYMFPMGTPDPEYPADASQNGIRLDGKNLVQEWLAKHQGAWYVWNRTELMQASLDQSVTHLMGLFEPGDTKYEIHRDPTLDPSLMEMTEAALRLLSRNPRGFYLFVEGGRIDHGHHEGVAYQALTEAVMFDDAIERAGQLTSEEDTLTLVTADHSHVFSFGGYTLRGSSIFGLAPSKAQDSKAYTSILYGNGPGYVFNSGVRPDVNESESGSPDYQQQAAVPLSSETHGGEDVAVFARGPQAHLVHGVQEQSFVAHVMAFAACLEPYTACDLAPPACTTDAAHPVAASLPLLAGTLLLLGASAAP
For test [7], the target named is Intestinal-type alkaline phosphatase (Mus musculus, UniProt P24822). As to the kind of experiment: PubChem AID 488785. The format is functional.
Sequence of Intestinal-type alkaline phosphatase (Mus musculus, UniProt P24822) (P24822 whole entry): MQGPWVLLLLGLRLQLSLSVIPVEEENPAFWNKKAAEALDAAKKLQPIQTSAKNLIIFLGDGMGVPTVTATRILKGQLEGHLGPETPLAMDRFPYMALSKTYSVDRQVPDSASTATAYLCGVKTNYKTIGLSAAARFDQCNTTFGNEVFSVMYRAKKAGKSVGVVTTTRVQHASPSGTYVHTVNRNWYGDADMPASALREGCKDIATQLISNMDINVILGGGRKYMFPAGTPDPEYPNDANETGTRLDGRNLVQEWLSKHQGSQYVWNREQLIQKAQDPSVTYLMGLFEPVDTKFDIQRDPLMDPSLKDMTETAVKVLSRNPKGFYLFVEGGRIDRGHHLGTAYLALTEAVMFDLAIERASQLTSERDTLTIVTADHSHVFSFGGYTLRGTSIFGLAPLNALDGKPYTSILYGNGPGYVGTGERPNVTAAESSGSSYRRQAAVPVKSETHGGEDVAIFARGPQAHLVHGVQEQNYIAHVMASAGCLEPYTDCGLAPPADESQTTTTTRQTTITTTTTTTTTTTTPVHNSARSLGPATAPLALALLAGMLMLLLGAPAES
The target of another test is T2, Streptokinase A (Streptococcus pyogenes serotype M1, UniProt P10520).
T2 sequence (P10520 whole entry): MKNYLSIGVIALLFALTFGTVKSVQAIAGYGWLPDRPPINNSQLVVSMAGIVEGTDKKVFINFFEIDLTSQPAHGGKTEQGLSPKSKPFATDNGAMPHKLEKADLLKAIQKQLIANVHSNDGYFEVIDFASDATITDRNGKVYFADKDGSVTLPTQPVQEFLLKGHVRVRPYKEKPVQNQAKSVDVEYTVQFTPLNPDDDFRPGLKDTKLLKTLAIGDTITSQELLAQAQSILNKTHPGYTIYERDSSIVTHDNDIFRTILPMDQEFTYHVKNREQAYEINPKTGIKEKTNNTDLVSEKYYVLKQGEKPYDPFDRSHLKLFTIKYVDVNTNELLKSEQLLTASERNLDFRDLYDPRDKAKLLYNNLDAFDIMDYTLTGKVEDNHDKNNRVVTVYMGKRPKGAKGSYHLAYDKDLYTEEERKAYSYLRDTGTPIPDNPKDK
As to the kind of experiment: S. pyogenes streptokinase expression inhibitors, potency, dose response, plasminogen activation absorbance, OD405 (AID 1914).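 Also: secreted streptokinase activity via plasminogen activation per viability signal from cell pellet.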 The format is functional, Streptococcus pyogenes M1 GAS.

Test [8] can be described thus: inhibitors of intracellular T. cruzi replication, confirmation, NIH3T3 host cells, beta-gal luminescence (AID 2044).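 Also: intracellular parasites grown in NIH/3T3 mouse fibroblasts as host cells; luminescent beta-galactosidase reporter signal from transgenic T. cruzi replicating inside host cells; inhibitors lower the luminescence signal.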 The format is functional, cell-based.
The target in test [9] is T3, DNA repair protein RAD52 homolog (Homo sapiens, UniProt P43351).
T3 sequence (P43351 whole entry): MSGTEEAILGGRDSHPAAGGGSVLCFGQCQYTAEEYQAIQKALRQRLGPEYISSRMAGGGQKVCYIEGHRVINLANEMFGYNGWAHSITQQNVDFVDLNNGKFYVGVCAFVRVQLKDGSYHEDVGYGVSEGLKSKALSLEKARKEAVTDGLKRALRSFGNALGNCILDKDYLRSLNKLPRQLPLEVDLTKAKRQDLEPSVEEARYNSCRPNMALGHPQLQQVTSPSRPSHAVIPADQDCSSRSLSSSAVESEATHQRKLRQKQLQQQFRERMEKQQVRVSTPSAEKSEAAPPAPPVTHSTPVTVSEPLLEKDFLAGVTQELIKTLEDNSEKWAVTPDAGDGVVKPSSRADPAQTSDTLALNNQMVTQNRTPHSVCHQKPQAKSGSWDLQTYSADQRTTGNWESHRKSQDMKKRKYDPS
The format is functional, biochemical.

Test [10] can be described thus: cytotoxicity toward NIH3T3 fibroblasts, dose response, counter-screen, cell-based, ATP luminescence, mouse fibroblasts (AID 2010).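 Also: cells exposed to compound for about 90 hours before reading.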 The format is functional. The settings on record: NIH3T3. For orientation: Counterscreens check selectivity or assay interference.
Test [11] has as its target T4, Ubiquitin-conjugating enzyme E2 N (Homo sapiens, UniProt P61088).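 Also: Dose-response confirmation in a TR-FRET assay detecting UBC13-driven polyubiquitin chain formation, inhibition measured.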
T4 sequence (P61088 whole entry): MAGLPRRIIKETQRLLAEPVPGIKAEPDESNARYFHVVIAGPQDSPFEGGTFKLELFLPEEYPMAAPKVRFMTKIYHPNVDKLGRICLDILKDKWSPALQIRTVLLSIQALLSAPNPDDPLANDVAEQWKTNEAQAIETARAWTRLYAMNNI
The format is functional.

A further test addresses T5, Aspartyl aminopeptidase (Plasmodium falciparum 3D7, UniProt Q8I2J3).
T5 sequence (Q8I2J3 whole entry): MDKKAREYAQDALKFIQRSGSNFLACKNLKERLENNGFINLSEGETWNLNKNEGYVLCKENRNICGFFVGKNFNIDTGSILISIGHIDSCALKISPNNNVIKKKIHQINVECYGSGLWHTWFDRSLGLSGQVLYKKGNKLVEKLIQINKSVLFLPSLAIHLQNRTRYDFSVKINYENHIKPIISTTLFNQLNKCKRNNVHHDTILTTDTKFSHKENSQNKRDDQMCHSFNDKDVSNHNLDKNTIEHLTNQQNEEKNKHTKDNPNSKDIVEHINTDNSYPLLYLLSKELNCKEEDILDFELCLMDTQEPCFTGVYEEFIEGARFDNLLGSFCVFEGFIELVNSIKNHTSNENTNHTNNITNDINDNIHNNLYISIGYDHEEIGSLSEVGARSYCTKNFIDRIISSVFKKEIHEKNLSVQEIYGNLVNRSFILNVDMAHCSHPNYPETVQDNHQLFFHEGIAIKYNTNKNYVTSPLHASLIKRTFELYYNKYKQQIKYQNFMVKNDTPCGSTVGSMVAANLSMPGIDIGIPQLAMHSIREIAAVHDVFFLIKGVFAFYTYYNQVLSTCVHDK

The target of test [12] is T6, Rac GTPase-activating protein 1 (Homo sapiens, UniProt Q9H0H5).
T6 sequence (Q9H0H5 whole entry): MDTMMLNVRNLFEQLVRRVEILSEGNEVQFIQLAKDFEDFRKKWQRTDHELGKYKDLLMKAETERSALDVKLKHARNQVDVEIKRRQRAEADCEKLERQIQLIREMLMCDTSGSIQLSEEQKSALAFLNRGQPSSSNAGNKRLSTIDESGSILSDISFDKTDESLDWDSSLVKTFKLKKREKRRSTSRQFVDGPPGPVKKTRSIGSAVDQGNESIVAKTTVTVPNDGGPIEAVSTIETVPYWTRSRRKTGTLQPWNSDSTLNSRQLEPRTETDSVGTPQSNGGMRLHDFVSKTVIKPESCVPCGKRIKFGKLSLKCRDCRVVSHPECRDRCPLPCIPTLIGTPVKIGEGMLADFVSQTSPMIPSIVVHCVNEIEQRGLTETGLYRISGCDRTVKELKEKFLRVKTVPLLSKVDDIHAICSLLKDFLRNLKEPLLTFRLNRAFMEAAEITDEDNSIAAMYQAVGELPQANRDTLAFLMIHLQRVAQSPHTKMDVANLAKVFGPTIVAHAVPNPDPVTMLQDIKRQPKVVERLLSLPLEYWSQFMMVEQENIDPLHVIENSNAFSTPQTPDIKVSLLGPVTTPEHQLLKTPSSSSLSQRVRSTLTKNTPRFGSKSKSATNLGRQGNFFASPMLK
As to the kind of experiment: MgcRacGAP GTPase-activating activity inhibitors, confirmation, biochemical, ADP Hunter fluorescence, primary and confirmatory (AID 624330). The format is functional.

Test [13] can be described thus: HeLa cell cytotoxicity, dose response, cytotoxicity control for MgcRacGAP inhibitor project (AID 624300). The format is functional.
A short description of test [14]: Artemis endonuclease inhibitor potency, dose response, biochemical, fluorescence intensity (AID 720701).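 Also: Artemis endonuclease enzyme.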 The format is functional.
Another test addresses Procathepsin L (Homo sapiens, UniProt P07711).
The target of another test is Bcl-2-like protein 10 (Homo sapiens, UniProt Q9HD36). As to the kind of experiment: displacers of TR3 peptide from Bcl-B, primary screen, selectivity assay for Bfl-1 inhibitor project, biochemical, fluorescence polarization, FITC-TR3 peptide (AID 748).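 Also: fluorescence polarization from a fluorescein-labelled TR3 peptide binding purified Bcl-B.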
Sequence of Bcl-2-like protein 10 (Q9HD36 whole entry): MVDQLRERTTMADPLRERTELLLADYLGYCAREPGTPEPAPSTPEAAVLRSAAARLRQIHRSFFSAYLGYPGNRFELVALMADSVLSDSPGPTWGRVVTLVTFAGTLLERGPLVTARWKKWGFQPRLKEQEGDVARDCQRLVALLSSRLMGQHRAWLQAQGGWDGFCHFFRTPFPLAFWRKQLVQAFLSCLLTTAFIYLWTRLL

As a reminder, the EC50 is the concentration giving half of the maximal effect. As a reminder, the AC50 is the concentration giving half of the maximal activity seen. Broadly, the IC50 is the concentration that inhibits the measured activity by half. As a reminder, the CC50 is the concentration that lowers cell viability or growth by half.

Calls of active or inactive are those of the source. Bounds are passed on as bounds.

Sequence of Procathepsin L (P07711 whole entry): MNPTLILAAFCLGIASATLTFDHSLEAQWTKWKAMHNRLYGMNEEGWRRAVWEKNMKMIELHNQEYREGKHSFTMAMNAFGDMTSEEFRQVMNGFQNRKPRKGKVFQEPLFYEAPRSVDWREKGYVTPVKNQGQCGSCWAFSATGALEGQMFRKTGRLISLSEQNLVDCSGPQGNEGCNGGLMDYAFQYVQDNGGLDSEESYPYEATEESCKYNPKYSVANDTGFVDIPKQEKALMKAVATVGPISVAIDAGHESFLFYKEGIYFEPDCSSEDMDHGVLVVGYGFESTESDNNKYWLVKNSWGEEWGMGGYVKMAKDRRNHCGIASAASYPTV

On to `C1COCCO1.CCOc1ccc(N2C(=O)CC(N(CCc3ccc(OC)c(OC)c3)C(S)=Nc3ccccc3)C2=O)cc1` (stereo not drawn), for which the EC50 in the test on HEK293 [1] and in the test on HEK293 [2] was > 59.7 µM (inactive) each time.

As for `CN(c1ccccc1)S(=O)(=O)c1ccc(-c2ccccc2)cc1`, the values for the AC50 in [3] and in [4] were 2.66 µM (active) and 62.2 µM (active), respectively.

Take `Cc1cc(Cl)ccc1NC(=S)NCCC(c1ccccc1)c1ccccc1`: the IC50 in [5] is 80.1 µM (active); in [6] it was > 100 µM (inactive); in test [7], 7.04 µM (active). Besides, the concentration giving a half-maximal response (EC50) at Streptokinase A was 48.5 µM (active).

With `Cc1cc(N2CCN(C)CC2)nc2ccc(NC(=S)N3CCN(c4ccc(Cl)cc4)CC3)cc12`, the AC50 in test [3] was 0.367 µM (active); in test [4], 184 µM (active); in test [9], 3.07 µM (active). Further, the EC50 is 0.762 µM (active) in [8] and 11.9 µM (active) in test [10]. The IC50 in [11] is > 20 µM (inactive).

Turning to `O=C(COc1ccccc1C(=O)N/N=C\c1ccc(O)c(O)c1)N/N=C/c1ccc(O)c(O)c1`, the IC50 is 1.5 µM (active) at Aspartyl aminopeptidase; 21.1 µM (active) in test [12]; > 100 µM (inactive) in test [5]; > 100 µM (inactive) in test [6]; 12.8 µM (active) in [7]; 1.91 µM (active) in test [14]. Also, the results for the IC50 against Procathepsin L and on Bcl-2-like protein 10 were > 59.6 µM (not active) and 1.07 µM (active), respectively. In [13], the CC50 was 100 µM (active).
